Results as given in ChEMBL document CHEMBL3885881, “DrugMatrix”.

Organism: Rattus norvegicus
Type: toxicity, organism-based, Sprague-Dawley
Details: in vivo, po, route oral GAVAGE, […]; for ABSOLUTE EOSINOPHIL / ABSOLUTE LYMPHOCYTE / ABSOLUTE MONOCYTE / ABSOLUTE SEGMENTED NEUTROPHIL / BASOPHIL / EOSINOPHIL / ERYTHROCYTE COUNT / HEMATOCRIT / HEMOGLOBIN / LEUKOCYTE COUNT / LYMPHOCYTE / MEAN CORPUSCULAR HEMOGLOBIN / MEAN CORPUSCULAR HEMOGLOBIN CONCENTRATION / MEAN CORPUSCULAR VOLUME / MONOCYTE / NEUTROPHIL / NUCLEATED RED BLOOD CELLS / PLATELET COUNT: tissue Blood; for ALANINE AMINOTRANSFERASE / ALKALINE PHOSPHATASE / ASPARTATE AMINOTRANSFERASE / BLOOD UREA NITROGEN / CARBON DIOXIDE / CHLORIDE / CHOLESTEROL / CREATINE PHOSPHOKINASE / CREATININE / GLUCOSE / LACTATE DEHYDROGENASE / LIPASE / PHOSPHORUS / POTASSIUM / SODIUM / TOTAL BILIRUBIN / TOTAL PROTEIN / URIC ACID: tissue Plasma
[1] = 0 mg/kg, 6 h, vehicle control, dose level Control, time 0.25 day
[2] = 0 mg/kg, 24 h, vehicle control, dose level Control, time 1 day
[3] = 100 mg/kg, 6 h, dose level Low, time 0.25 day

Description: DrugMatrix - Regimen: Single

Cc1ccc(C)c(OCCCC(C)(C)C(=O)O)c1 [GEMFIBROZIL] was tested, and the “ABSOLUTE EOSINOPHIL” value [1] was 0 CELLS/uL, the “ABSOLUTE LYMPHOCYTE” value [1] was 8631 CELLS/uL and the “ABSOLUTE MONOCYTE” value [1] was 171.17 CELLS/uL. The “ABSOLUTE SEGMENTED NEUTROPHIL” value [1] was 1214.5 CELLS/uL, the BASOPHIL [1] was 0% and the EOSINOPHIL [1] was 0%. For the same compound, the “ERYTHROCYTE COUNT” value [1] was 5.42 x10E6/uL, the HEMATOCRIT [1] was 34.7% and the HEMOGLOBIN [1] was 13.67 G/DL. For the same compound, the “LEUKOCYTE COUNT” value [1] was 10.02 x10E3/uL, the LYMPHOCYTE [1] was 86.17% and the “MEAN CORPUSCULAR HEMOGLOBIN” value [1] was 25.27 pg. The “MEAN CORPUSCULAR HEMOGLOBIN CONCENTRATION” value [1] was 39.42 G/DL, the “MEAN CORPUSCULAR VOLUME” value [1] was 64.12 fL and the MONOCYTE [1] was 1.67%. The NEUTROPHIL [1] was 12.17%, the “NUCLEATED RED BLOOD CELLS” value [1] was 0 /100WBC and the “PLATELET COUNT” value [1] was 1050 x10E3/uL. For the same compound, the “ALANINE AMINOTRANSFERASE” value [1] was 61 u/L, the “ALKALINE PHOSPHATASE” value [1] was 312.5 u/L and the “ASPARTATE AMINOTRANSFERASE” value [1] was 117.5 u/L. The “BLOOD UREA NITROGEN” value [1] was 8.67 mg/dL, the “CARBON DIOXIDE” value [1] was 26.33 mmol/L and the CHLORIDE [1] was 100.5 MEQ/L. The CHOLESTEROL [1] was 72 mg/dL, the “CREATINE PHOSPHOKINASE” value [1] was 283.33 u/L and the CREATININE [1] was 0.28 mg/dL. For the same compound, the GLUCOSE [1] was 172 mg/dL, the “LACTATE DEHYDROGENASE” value [1] was 95.33 u/L and the LIPASE [1] was 10.17 u/L. The PHOSPHORUS [1] was 9.9 mg/dL, the POTASSIUM [1] was 5.75 MEQ/L and the SODIUM [1] was 142.4 MEQ/L. For the same compound, the “TOTAL BILIRUBIN” value [1] was 0.3 mg/dL, the “TOTAL PROTEIN” value [1] was 5.43 G/DL and the “URIC ACID” value [1] was 0.73 mg/dL. For the same compound, the “ABSOLUTE EOSINOPHIL” value [2] was 90.83 CELLS/uL, the “ABSOLUTE LYMPHOCYTE” value [2] was 14725.17 CELLS/uL and the “ABSOLUTE MONOCYTE” value [2] was 220 CELLS/uL. For the same compound, the “ABSOLUTE SEGMENTED NEUTROPHIL” value [2] was 1080.67 CELLS/uL, the BASOPHIL [2] was 0% and the EOSINOPHIL [2] was 0.67%. The “ERYTHROCYTE COUNT” value [2] was 5.3 x10E6/uL, the HEMATOCRIT [2] was 33.4% and the HEMOGLOBIN [2] was 13.4 G/DL. For the same compound, the “LEUKOCYTE COUNT” value [2] was 16.12 x10E3/uL, the LYMPHOCYTE [2] was 91.17% and the “MEAN CORPUSCULAR HEMOGLOBIN” value [2] was 25.3 pg. The “MEAN CORPUSCULAR HEMOGLOBIN CONCENTRATION” value [2] was 40.12 G/DL, the “MEAN CORPUSCULAR VOLUME” value [2] was 63.05 fL and the MONOCYTE [2] was 1.5%. For the same compound, the NEUTROPHIL [2] was 6.67%, the “NUCLEATED RED BLOOD CELLS” value [2] was 0 /100WBC and the “PLATELET COUNT” value [2] was 1062 x10E3/uL. The “ALANINE AMINOTRANSFERASE” value [2] was 69 u/L, the “ALKALINE PHOSPHATASE” value [2] was 269 u/L and the “ASPARTATE AMINOTRANSFERASE” value [2] was 83.67 u/L. The “BLOOD UREA NITROGEN” value [2] was 14 mg/dL, the “CARBON DIOXIDE” value [2] was 29 mmol/L and the CHLORIDE [2] was 100.83 MEQ/L. For the same compound, the CHOLESTEROL [2] was 66.67 mg/dL, the “CREATINE PHOSPHOKINASE” value [2] was 355 u/L and the CREATININE [2] was 0.18 mg/dL. The GLUCOSE [2] was 161.33 mg/dL, the “LACTATE DEHYDROGENASE” value [2] was 123.33 u/L and the LIPASE [2] was 10.67 u/L. For the same compound, the PHOSPHORUS [2] was 8.83 mg/dL, the POTASSIUM [2] was 6.06 MEQ/L and the SODIUM [2] was 142.45 MEQ/L. The “TOTAL BILIRUBIN” value [2] was 0.2 mg/dL, the “TOTAL PROTEIN” value [2] was 5.72 G/DL and the “URIC ACID” value [2] was 1.27 mg/dL. The “ABSOLUTE EOSINOPHIL” value [3] was 97 CELLS/uL, the “ABSOLUTE LYMPHOCYTE” value [3] was 13743.17 CELLS/uL and the “ABSOLUTE MONOCYTE” value [3] was 354.83 CELLS/uL. The “ABSOLUTE SEGMENTED NEUTROPHIL” value [3] was 1355 CELLS/uL, the BASOPHIL [3] was 0% and the EOSINOPHIL [3] was 0.67%. The “ERYTHROCYTE COUNT” value [3] was 5.46 x10E6/uL, the HEMATOCRIT [3] was 35.92% and the HEMOGLOBIN [3] was 13.93 G/DL. For the same compound, the “LEUKOCYTE COUNT” value [3] was 15.55 x10E3/uL, the LYMPHOCYTE [3] was 88.33% and the “MEAN CORPUSCULAR HEMOGLOBIN” value [3] was 25.62 pg. The “MEAN CORPUSCULAR HEMOGLOBIN CONCENTRATION” value [3] was 38.85 G/DL, the “MEAN CORPUSCULAR VOLUME” value [3] was 65.98 fL and the MONOCYTE [3] was 2.17%. The NEUTROPHIL [3] was 8.83%, the “NUCLEATED RED BLOOD CELLS” value [3] was 0 /100WBC and the “PLATELET COUNT” value [3] was 1082.83 x10E3/uL. For the same compound, the “ALANINE AMINOTRANSFERASE” value [3] was 47.5 u/L, the “ALKALINE PHOSPHATASE” value [3] was 284.67 u/L and the “ASPARTATE AMINOTRANSFERASE” value [3] was 80.83 u/L. The “BLOOD UREA NITROGEN” value [3] was 8 mg/dL, the “CARBON DIOXIDE” value [3] was 26.67 mmol/L and the CHLORIDE [3] was 100.17 MEQ/L. The CHOLESTEROL [3] was 76 mg/dL, the “CREATINE PHOSPHOKINASE” value [3] was 275.33 u/L and the CREATININE [3] was 0.13 mg/dL. The GLUCOSE [3] was 141.33 mg/dL, the “LACTATE DEHYDROGENASE” value [3] was 112.33 u/L and the LIPASE [3] was 11 u/L. The PHOSPHORUS [3] was 11.7 mg/dL, the POTASSIUM [3] was 6.32 MEQ/L and the SODIUM [3] was 141.92 MEQ/L. The “TOTAL BILIRUBIN” value [3] was 0.37 mg/dL, the “TOTAL PROTEIN” value [3] was 5.85 G/DL and the “URIC ACID” value [3] was 1.2 mg/dL.
